“Also recorded” adds a separate entry of the source. Read-outs that look alike come from different tables or passages of the source. Where a SMILES comes first, the peptide text is derived from it. The star is where a group is joined. Cbz = O=C(OCc1ccccc1)*; CH2F = FC*
Legend:
Trib2-OE cells = experiment: Enzalutamide sensitivity of Trib2-overexpressing prostate cancer cells; assay type: cell-based, human; details: clinically relevant doses
From the text: Prostate cancer cells were transfected with full length human gene to overexpress Trib2 (FIG. 18). […] Trib2 siRNA was used in parallel experiments as a positive control.

LNCaP-ENR cells [1] = experiment: MTS/PES cell viability assay, ERPC cells; assay type: cell-based, human; details: LNCaP-ENR cells, varying doses, 72 hours, MTS/PES; listed as ledipasvir
Procedure: Plates were incubated for 72 hours at 37° C. in a CO2 incubator. Cell viability was measured by MTS/PES cell titer assay (Promega Corp., Madison, WI).

LNCaP-ENR cells [2] = experiment: Soft-agar colony formation assay; assay type: cell-based, human; details: LNCaP-ENR (ERPC) cells, three weeks; DCV at 8 μM
Procedure: Effect of DCV on soft-agar colony formation was also analyzed. LNCaP-ENR cells (10,000 per well in 6-well plates) were plated in 0.3% soft-agar on top of a base layer of 0.6% agar. The cells were treated with DCV and incubated at 37° C. for three weeks in the CO2 incubator. Cells were given fresh media and drug every fourth day. At the end of the incubation period, colonies were stained with 0.025% crystal violet, and pictures of colonies were taken with a Nikon digital camera at ×200. Image processing was done using Q-Capture Pro-7 software. Exemplary methods of the foregoing technique can be found in Sarveswaran, Sivalokanathan et al. “Inhibition of 5-lipoxygenase downregulates stemness and kills prostate cancer stem cells by triggering apoptosis via activation of c-Jun N-terminal kinase.” Oncotarget vol. 10, 4 424-436. 11 Jan. 2019, the disclosure of which is incorporated herein by reference in its entirety.

[3] = tested on: LNCaP-ENR and MR49F ERPC cells; experiment: In vitro invasion through extracellular matrix; assay type: cell-based, human; details: LNCaP-ENR and MR49F ERPC cells (data not shown)
LNCaP-ENR cells [4] = experiment: Apoptosis by Annexin V binding, flow cytometry; assay type: cell-based, human
Procedure: To test DCV effects on cancer cell apoptosis, LNCaP-ENR cells were treated with 8 μM DCV for 24 hours and analyzed by flow cytometry. Treatment with DCV indicated increased Annexin V binding, a read-out for apoptosis (FIG. 3C).

[5] = biological target: T1, Trib2-Luciferase (Luc-Trib2) fusion (Homo sapiens, UniProt Q92519); details: 10 μM, 24 hours, HFF-Trib2-Luc cells
T1 sequence (Q92519 with tags, fused parts or gaps): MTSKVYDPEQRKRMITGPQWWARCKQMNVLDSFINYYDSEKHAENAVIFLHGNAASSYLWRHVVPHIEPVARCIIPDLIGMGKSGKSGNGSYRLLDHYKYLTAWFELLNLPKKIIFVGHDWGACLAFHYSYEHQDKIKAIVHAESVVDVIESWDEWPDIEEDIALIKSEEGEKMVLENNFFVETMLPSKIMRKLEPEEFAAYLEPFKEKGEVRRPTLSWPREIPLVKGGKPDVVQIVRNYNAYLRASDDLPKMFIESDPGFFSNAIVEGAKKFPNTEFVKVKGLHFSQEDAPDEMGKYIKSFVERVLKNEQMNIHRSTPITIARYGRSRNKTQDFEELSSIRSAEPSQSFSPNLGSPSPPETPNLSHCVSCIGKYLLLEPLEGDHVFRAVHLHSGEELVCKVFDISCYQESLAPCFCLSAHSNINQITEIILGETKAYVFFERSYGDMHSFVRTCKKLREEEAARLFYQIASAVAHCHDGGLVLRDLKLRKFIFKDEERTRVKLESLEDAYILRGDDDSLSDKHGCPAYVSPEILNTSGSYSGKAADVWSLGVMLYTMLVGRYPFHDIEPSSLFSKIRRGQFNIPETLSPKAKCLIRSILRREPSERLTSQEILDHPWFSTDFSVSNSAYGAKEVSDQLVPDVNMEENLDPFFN

[6] = biological target: T1, Trib2-Luciferase (Luc-Trib2) fusion; experiment: cell-based; details: HFF, read-out: Luciferase activity (%)
TRIB2 = biological target: T2, TRIB2 (Homo sapiens, UniProt Q92519); experiment: Western blot of TRIB2 protein levels in cancer cells; assay type: cell-based; design: Whole cell lysate proteins were analyzed by Western blot; endogenous in cells; host or cells: LNCaP-ENR (enzalutamide-resistant LNCaP) cells; details: LNCaP-ENR cells, 10 μM, 24 hours, Western blot
T2 sequence (Q92519 1-343): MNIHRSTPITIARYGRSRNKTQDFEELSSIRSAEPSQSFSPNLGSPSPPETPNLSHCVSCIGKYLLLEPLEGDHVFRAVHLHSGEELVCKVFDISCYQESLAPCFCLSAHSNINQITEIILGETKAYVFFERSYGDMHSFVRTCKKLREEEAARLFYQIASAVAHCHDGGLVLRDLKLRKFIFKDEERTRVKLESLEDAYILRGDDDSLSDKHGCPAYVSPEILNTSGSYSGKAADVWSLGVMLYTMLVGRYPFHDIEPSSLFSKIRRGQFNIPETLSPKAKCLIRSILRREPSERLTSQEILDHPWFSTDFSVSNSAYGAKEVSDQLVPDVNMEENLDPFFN
Procedure: Enzalutamide-resistant prostate cancer (ERPC) cells (LNCaP-ENR cells) were plated and treated with 10 μM each of various compounds for 24 hours. Exemplary methods for developing and using LNCaP-ENR cells is disclosed in Monga, J., Subramani, D., Bharathan, A., and Ghosh, J. (2020) “Pharmacological and genetic targeting of 5-lipoxygenase interrupts c-Myc oncogenic signaling and kills enzalutamide-resistant prostate cancer cells via apoptosis.” Scientific Reports 10: 6649, the disclosure of which is incorporated herein by reference in its entirety. Whole cell lysate proteins were analyzed by Western blot. TRIB2 antibody was used to detect protein levels of TRIB2 and GAPDH was used as loading control. Monoclonal anti-Trib2 antibody was purchased from Santa Cruz Biotech, Santa Cruz, CA.
LNCaP-ENR cells were treated with varying doses (4 μM, 8 μM, or 12 μM) of DCV for 24 hours. Effects on TRIB2 protein levels and its downstream targets (e.g., pAkt, Bcl-xL, Survivin, and FOXO3) were analyzed by Western blot. GAPDH was used as loading control. Protein levels of TRIB2, pAKT (S473), Bcl-xL, and Survivin were reduced in cells treated with 12 μM of DCV compared to control-treated cells (FIG. 3A). Levels of FOXO3 protein were increased at 12 μM of DCV treatment compared to control treatment. This was expected, as FOXO3 level is known to be decreased by Trib2. These effects on cellular protein levels were DCV concentration-dependent, with the most pronounced effects observed at the highest concentration tested (12 μM).

## CNC(=O)c1ccc(N2C(=S)N(c3ccc(C#N)c(C(F)(F)F)c3)C(=O)C2(C)C)cc1F [enzalutamide]
Trib2-OE cells
  response of Trib2-OE cells to enzalutamide: completely resistant

## COC(=O)N[C@H](C(=O)N1CC2(CC2)C[C@H]1c1nc(-c2ccc3c(c2)C(F)(F)c2cc(-c4ccc5[nH]c([C@@H]6[C@H]7CC[C@H](C7)N6C(=O)[C@@H](NC(=O)OC)C(C)C)nc5c4)ccc2-3)c[nH]1)C(C)C [Ledipasvir]
LNCaP-ENR cells [1]
  Cell viability: not
LNCaP-ENR cells [2]
  soft-agar colony formation: completely ineffective
[3]
  in vitro invasion through extracellular matrix: completely ineffective
LNCaP-ENR cells [4]; ERPC cells
  signs of apoptotic features: did not show any signs of apoptotic features
[5]
  inhibition of Trib2-luciferase activity (in words): completely ineffective
[5]; listed as ledipasvir
  inhibition of Trib2-luciferase activity (in words): no inhibition; also recorded: not effective
[6]
  activity at 10 µM: 100%
TRIB2
  TRIB2 protein levels: neither downregulates TRIB2

## COC(=O)C[C@H](NC(=O)[C@H](C)NC(=O)[C@@H](NC(=O)OCc1ccccc1)C(C)C)C(=O)CF [Z-VAD-FMK] (Cbz-Val-Ala-Asp(OMe)-CH2F)
LNCaP-ENR cells [4]; ERPC cells pretreated
  DCV treatment-induced apoptosis after pretreatment with caspase inhibitor: inhibited
